Experimental data published in patent EP3027213B1, “COMPOSITIONS FOR AMELIORATING AND/OR PREVENTING ADVERSE SIDE EFFECTS IN ANTIBIOTIC THERAPY” (priority 2013, dated 2015).
“Also recorded” adds a separate entry of the source. Read-outs that look alike come from different tables or passages of the source.

Legend:
[1] = test system: human dermal fibroblast (HDF) monolayer; assay type: cell-based
Description: (§1) The panels display co-cultures grown on petri-dishes that contain a human dermal fibroblast (HDF) monolayer inoculated with GFP-colorized 143B.TK- cells imaged by fluorescence microscopy and phase contrast microscopy. The HDF cells represent a resting post-mitotic tissue, while the GFP-colorized 143B.TK- cells mimic mitotic active cells. • Figure 1b, left panel: Without pyruvate and uridine, the side effect of chloramphenicol (or linezolid, or tigezycline) can be visualized on co-cultures similarly to the effect seen in figure 1. Approximately at day 4 of culture, the mitotic active colony enlarges and experiences growth retardation. […] The mitotic cells grow completely regularly. At day 8, the entire area is overgrown by the GFP-colorized 143B.TK^- cells.
(§2) The panels display co-cultures grown on petri-dishes that contain a human dermal fibroblast (HDF) monolayer inoculated with GFP-colorized 143B.TK^- cells and dsRED-colorized 143B.TK^-CAP-res cells. The dsRED-colorized 143B.TK^-CAP-res cells contain a mitochondrial genotype that renders the cells chloramphenicol resistant.
(§3) To understand the influence of the antibiotic on cell cycles state, a co-culture was established that was based on a primary fibroblasts monolayer (mimicking cells at resting state) that was inoculated with 143B.TK^- cells (mimicking cells in mitotic state, dividing cells).
(§4) However, the fibroblast layer was completely unaffected and vital to start regrowth again (proven by executing scratches through the monolayer; "wound-healing" set in immediately). […] Both side-effects could be removed by co-administering uridine and/or pyruvate or derivatives thereof.

[2] = test system: E. coli DH5α; assay: Paper pad agar diffusion test, non-growth zone (Examples 2 and 3); assay type: cell-based; conditions: LB plates as is or supplemented with uridine (50 µg/ml), sodium pyruvate (1 mM) or both; three concentrations; over night at 37°C
Experimental: (§5) Paper test pads (Rotiolabo, 6mm, Roth, Karlsruhe) were soaked with 7.5 µl of antibiotic-solution (concentrations used: 0.5 mM CAP; 0.77 mM CAP; 1.2 mM CAP; 0.15 mM LIN; 0.25 mM LIN; 0,4 mM LIN; 0.15 mM TIG; 0.25 mM TIG; 0.4 mM TIG) and placed on top of the agar plates (CAP- and LIN-solutions on APT/B. subtilis plates, TIG-solutions on LB/E. coli plates). Petri dishes were incubated over night at 37°C and analyzed by measuring the size of the non-growth zone of bacteria surrounding the antibiotics soaked paper pads (see figure 3a, and 3b).
(§6) Paper test pads (Rotiolabo, 6mm, Roth, Karlsruhe) were soaked with 7.5 µl of antibiotic-solution (concentrations used: 0.5 mM CAP; 0.77 mM CAP; 1.2 mM CAP; 0.15 mM LIN; 0.25 mM LIN, 0.4 mM LIN; 0.15 mM TIG, 0.25 mM TIG; 0.4 mM TIG; 0.5 mM CAP + 0.15 mM LIN; 0.77 mM CAP + 0.25 mM LIN; 1.2 mM CAP + 0.4 mM LIN; 0.5 mM CAP + 0.15 mM LIN + 0.15 mM TIG; 0.77 mM CAP + 0.25 mM LIN + 0.25 mM TIG; 1.2 mM CAP + 0.4 mM LIN + 0.4 mM TIG; 0.5 mM CAP + 0.15 mM TIG; 0.77 mM CAP + 0.25 mM TIG; 1.2 mM CAP + 0.4 mM TIG) and placed on top of the agar plates (CAP- and LIN-solutions on APT/B. subtilis plates, TIG-solutions on LB/E. coli plates). Petri dishes were incubated over night at 37°C and analyzed by measuring the size of the non-growth zone of bacteria surrounding the antibiotics soaked paper pads (see figure 2a, and 2b).

[3] = test system: 143B.TK^- cells; assay type: cell-based, human
Experimental: Left panel: 143B.TK^- cells containing a green colorizing gene (GFP, green color) were seeded and grown to the original density in normal growth medium (left, 1). At day 1, medium was changed to allow cell growth under pyruvate and uridine free conditions; the medium was supplemented with chloramphenicol (or linezolid, or tigezycline; see example 1). […] At day 6 (image 3), the imaged colony starts to disperse and diminishes. At day 8 (image 4), cell number further declines and cells ceased to exist (day 10). Right panel: 143B.TK^- cells containing a green colorizing gene (GFP, green color) were seeded and grown to the original density in normal growth medium (right, 1). At day 1, medium was changed to allow cell growth under controlled pyruvate and uridine supply; the medium was supplemented with chloramphenicol (or linezolid, or tigezycline; see example 1).
In order to understand the side effects of antibiotics, we incubated cultured human cells with antibiotics that are known to impede cell's metabolism. The experiments were carried out with chloramphenicol, tigezycline or linezolid under otherwise identical conditions. […] Cells were treated with chloramphenicol (150 µg/ml culture medium, 450 µM; or linezolid, or tigezycline) and medium was exchanged on a daily basis. […] After additional 4 days, cells ceased to exist (see figure 1a).

[4] = test system: GFP-colorized 143B.TK- cells; assay type: cell-based; conditions: human, 13 days, 150 µg/ml
Description: as §1, §3, §4

[5] = test system: GFP-colorized 143B.TK^- cells; assay type: cell-based; conditions: human
Description: as §2
(§7) To see whether or not the side-effect of these antibiotics reside within the mitochondria of the cell, a co-culture was established that was made of a primary fibroblast monolayer inoculated with 143B.TK^- and 143.TK^-CAP^res cells. The latter cell line is identical to the 143B.TK- cell line, except that these cells carry a CAP resistant mutation within the 16S rRNA gene located within the mitochondrial genome and are differently color coded.

[6] = test system: B. subtilis DSM 347; assay: Paper pad agar diffusion test, non-growth zone (Examples 2 and 3); assay type: cell-based; conditions: APT-plates as is or supplemented with uridine (50 µg/ml), sodium pyruvate (1 mM) or both; three concentrations; over night at 37°C
Experimental: as §5, §6

[7] = test system: dsRED-colorized 143B.TK^-CAP-res cells; assay: Co-culture with chloramphenicol-sensitive and -resistant cells: resistant cells (Fig. 1d); assay type: cell-based, human; conditions: co-culture on HDF monolayer with 143B.TK^- cells, uridine and pyruvate not supplied
Description: as §2, §7

[8] = test system: 143B.TK^- cells; assay: cells; assay type: cell-based; conditions: Homo sapiens, 240 h, chloramphenicol 50 nM - 300 µM, 10 days
Experimental: The half maximal inhibitory concentration (IC50) is a measure of the effectiveness of a compound in inhibiting biological or biochemical function. This quantitative measure indicates, how much of a particular drug or compound is needed to inhibit a given biological process by half. In this case, the IC50 value was determined for the side-effect of the antibiotic on human cells in the presence or absence of pyruvate and/or uridine. IC50 values were determined utilizing resazurin (Cell-Quanti-Blue Cell Viability Assay Kit, Biotrend Chemikalien GmbH, Köln), a fluorescent dye indicating vital living or dead cells. For the experiment, 24-well culture dishes were seeded with a dilution of 143B.TK^- cells (10^3 cells each). The culture medium was composed of DMEM FG0445 (containing sodium pyruvate, high-glucose, glutamine; at the discretion of the supplier) supplemented with 5% FCS and 0.5 % uridine. After an initial growth of two days, cells were washed in PBS. From here, cells were grown in DMEM F0435 (containg high-glucose, without pyruvate, without glutamine; at the discretion of the supplier) supplemented with 2 % glutamine and 5% FCS. Depending on the subsequent experiments, cell growth medium was further supplemented with: • 1. w/o chloramphenicol, w/o pyruvate, w/o uridine • 2. w chloramphenicol (50 nM - 300 µM), w/o pyruvate, w/o uridine • 3. w chloramphenicol (50 nM - 300 µM), w/o pyruvate, w uridine (50 µg/ml) • 4. w chloramphenicol (50 nM - 300 µM), w pyruvate (100 µg/ml), w/o uridine • 5. w chloramphenicol (50 nM - 300 µM), w pyruvate (100 µg/ml), w uridine (50 µg/ml)
Growth medium was changed every 12 hours. The experiment was carried out for 10 days.
Measures of sets 2-5 were normalized by measure 1. Thus, when cell vitality under chloramphenicol treatment is similar to normal cell growth (measure 1), the ratio of (measure 2, 3, 4, 5) /(measure 1) expressed in % should stay close to 1. […] When pyruvate or pyruvate + uridine were added to the growth medium, IC50 of CAP was out of range (> 300 µM).

[9] = test system: human HT29 rho zero cell line; assay: Growth of rho zero cells with alternative pyruvate or uridine sources, phase contrast microscopy (Example 5, Fig. 6); assay type: cell-based; conditions: day 9
Experimental: Side effects of antibiotics can be ameliorated by administration of pyruvate and uridine. This observation can be further substantiated by applying alternative pyruvate or uridine sources, as for example alanine and uridine monophosphate (UMP). • Alternative pyruvate source: To challenge this hypothesis, cells devoid of mitochondrial DNA (rho zero cells) resembling cells that were treated with the antibiotics and have lost their mitochondrial encoded proteins, were cultured in the presence of uridine, alanine and uridine or pyruvate and uridine. […] Cells growth medium was supplemented with uridine (0.2 mM uridine) or alanine (1-10 mM alanine) and uridine (0.2 mM uridine) or pyruvate (1 mM sodium pyruvate) and uridine (0.2 mM uridine) (see figure 6a). […] Thus, pyruvate can be substituted by alternative pyruvate sources to ameliorate side effects of antibiotics. • Alternative uridine source: To challenge this hypothesis, cells devoid of mitochondrial DNA (rho zero cells) resembling cells that were treated with the antibiotics and have lost their mitochondrial encoded proteins, were cultured in the presence of UMP, alanine and UMP or pyruvate and UMP. […] Cells growth medium was supplemented with UMP (0.2 mM UMP) or alanine (1-10 mM alanine) and UMP (0.2 mM UMP) or pyruvate (1 mM sodium pyruvate) and UMP (0.2 mM UMP) (see figure 6b). […] Thus, UMP can be substituted by alternative pyrimidine source to ameliorate side effects of antibiotics.

[10] = 0.2 mM uridine source alone, without any pyruvate source

Compound	cell vitality of the HDF monolayer [1]	Antibiotic effect (size of the non-growth zone) [2]	cell growth [3]	cell growth ([3]; human, 150 µg/ml)	growth of the mitotic active colony [4]	Antibiotic effect (size of the non-growth zone) [6]	cell growth [9, 10]	further results
CN(C)c1cc(NC(=O)CNC(C)(C)C)c(O)c2c1C[C@H]1C[C@H]3[C@H](N(C)C)C(O)=C(C(N)=O)C(=O)[C@@]3(O)C(O)=C1C2=O [tigezycline]	no change in cell vitality	not rendered by the co-administered compounds uridine and/or pyruvate; also recorded: independent of pyruvate, uridine or pyruvate + uridine supplementation	growth behavior of the cells was not altered by the antibiotic	cell growth retarded and came to a halt after 6 days	finally ceases to exist at day 13			
O=C(N[C@H](CO)[C@H](O)c1ccc([N+](=O)[O-])cc1)C(Cl)Cl [chloramphenicol]	no change in cell vitality	independent of pyruvate, uridine or pyruvate + uridine supplementation	growth behavior of the cells was not altered by the antibiotic	cell growth retarded and came to a halt after 6 days	finally ceases to exist at day 13	not rendered by the co-administered compounds uridine and/or pyruvate; also recorded: independent of pyruvate, uridine or pyruvate + uridine supplementation		cell growth [5]: cells stopped growth after 4-5 days and ceased to exist after additional 6 days; cell growth [7]: exhibited no limitation in cell growth; also recorded: not influenced by the side-effect of chloramphenicol and grew regularly; cell growth ([7]; listed as CAP): not influenced by CAP; IC50 ([8]; w pyruvate (100 µg/ml), w uridine (50 µg/ml)): > 300 µM; IC50 ([8]; w pyruvate (100 µg/ml), w/o uridine): > 300 µM; IC50 ([8]; w/o pyruvate, w uridine (50 µg/ml)): 7.5 µM; IC50 ([8]; w/o pyruvate, w/o uridine): 3.2 µM
O=c1ccn([C@@H]2O[C@H](CO)[C@@H](O)[C@H]2O)c(=O)[nH]1 [uridine]							did not exhibit cell growth; also recorded: cell growth stalls and comes to an halt	
C[C@H](N)C(=O)O [alanine]								cell growth ([9]; on UMP supplemented media (0.2 mM UMP), alanine 1-10 mM or sodium pyruvate 1 mM): displayed regular cell growth; also recorded: cells prosper and grow almost in the same range as normal cells; cell growth ([9]; on uridine supplemented media (0.2 mM uridine), alanine 1-10 mM or sodium pyruvate 1 mM): displayed regular cell growth; also recorded: cells prosper and grow almost in the same range as normal cells
CC(=O)NC[C@H]1CN(c2ccc(N3CCOCC3)c(F)c2)C(=O)O1 [linezolid]	no change in cell vitality		growth behavior of the cells was not altered by the antibiotic	cell growth retarded and came to a halt after 6 days	finally ceases to exist at day 13	not rendered by the co-administered compounds uridine and/or pyruvate; also recorded: independent of pyruvate, uridine or pyruvate + uridine supplementation		
O=c1ccn([C@@H]2O[C@H](COP(=O)(O)O)[C@@H](O)[C@H]2O)c(=O)[nH]1 [UMP, uridine monophosphate]							did not exhibit cell growth; also recorded: cell growth stalls and comes to an halt	
